Laboratory results from US7276502B2, “Thiazoles useful as inhibitors of protein kinases” (Vertex Pharmaceuticals Incorporated, priority 2003, dated 2007).

What was measured:
SYK = SYK (Homo sapiens, UniProt P43405); assay: SYK inhibition assay (standard coupled enzyme assay); assay type: biochemical; conditions: coupled enzyme assay, 200 μM ATP, 4 μM poly Gly-Tyr peptide, 30° C.; read-out: Ki (SYK)
Method: Reactions were carried out in 100 mM HEPES (pH 7.5), 10 mM MgCl2, 25 mM NaCl, 1 mM DTT and 1.5% DMSO. Final substrate concentrations in the assay were 200 μM ATP (Sigma chemical Co.) and 4 μM poly Gly-Tyr peptide (Sigma Chemical Co.). Assays were carried out at 30° C. and 200 nM SYK. Final concentrations of the components of the coupled enzyme system were 2.5 mM phosphoenolpyruvate, 300 μM NADH, 30 μg/ml pyruvate kinase and 10 μg/ml lactate dehydrogenase.
An assay stock buffer solution was prepared containing all of the reagents listed above, with the exception of SYK, DTT, and the test compound of interest of the present invention. 56 μl of the test reaction was placed in a 96 well plate followed by the addition of 1 μl of 2 mM DMSO stock containing the test compound of the present invnetion (final compound concentration 30 μM).

ZAP-70 = biological target: T1, ZAP-70 (Homo sapiens, UniProt P43403); assay: ZAP-70 inhibition assay (standard coupled enzyme assay); assay type: biochemical; conditions: 100 μM ATP, 20 μM poly-4EY peptide, 30° C., 60 nM ZAP-70
T1 sequence (P43403 1-619): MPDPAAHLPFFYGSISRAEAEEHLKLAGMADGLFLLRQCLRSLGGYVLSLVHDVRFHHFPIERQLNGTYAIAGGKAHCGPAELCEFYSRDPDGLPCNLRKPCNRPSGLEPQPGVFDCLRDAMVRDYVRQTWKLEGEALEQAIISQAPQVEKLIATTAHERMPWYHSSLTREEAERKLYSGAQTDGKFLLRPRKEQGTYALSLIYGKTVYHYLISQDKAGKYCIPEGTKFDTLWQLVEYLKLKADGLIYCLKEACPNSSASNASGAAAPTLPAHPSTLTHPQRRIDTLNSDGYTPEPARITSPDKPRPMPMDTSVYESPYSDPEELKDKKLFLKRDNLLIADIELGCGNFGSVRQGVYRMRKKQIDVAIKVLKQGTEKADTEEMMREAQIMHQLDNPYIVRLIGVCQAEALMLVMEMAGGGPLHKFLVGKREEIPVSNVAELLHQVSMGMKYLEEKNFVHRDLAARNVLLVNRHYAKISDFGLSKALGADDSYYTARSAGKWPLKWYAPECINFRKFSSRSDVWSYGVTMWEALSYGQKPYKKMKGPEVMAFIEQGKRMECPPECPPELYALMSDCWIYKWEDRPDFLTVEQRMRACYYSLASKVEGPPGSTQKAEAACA
Method: Compounds were screened for their ability to inhibit ZAP-70 using a standard coupled enzyme assay (Fox et al., Protein Sci. 1998, 7, 2249). Assays were carried out in a mixture of 100 mM HEPES (pH 7.5), 10 mM MgCl2, 25 mM NaCl, 2 mM DTT and 3% DMSO. Final substrate concentrations in the assay were 100 μM ATP (Sigma Chemicals) and 20 μM peptide (poly-4EY, Sigma Chemicals). Assays were carried out at 30° C. and 60 nM ZAP-70. Final concentrations of the components of the coupled enzyme system were 2.5 mM phosphoenolpyruvate, 300 μM NADH, 30 μg/ml pyruvate kinase and 10 μg/ml lactate dehydrogenase.
An assay stock buffer solution was prepared containing all of the reagents listed above, with the exception of ZAP-70 and the test compound of interest of the present invention. 55 μl of the stock solution was placed in a 96 well plate followed by addition of 2 μl of DMSO stock containing serial dilutions of the test compound of the present invention (typically starting from a final concentration of 15 μM). The plate was preincubated for 10 minutes at 30° C. and the reaction initiated by addition of 10 μl of enzyme (final concentration 60 nM). Initial reaction rates were determined with a Molecular Devices SpectraMax Plus plate reader over a 15 minute time course. Ki data was calculated from non-linear regression analysis using the Prism software package (GraphPad Prism version 3.0a for Macintosh, GraphPad Software, San Diego Calif., USA).

| Ki (SYK) [µM] | Ki (ZAP-70) [µM] | Compound |
| --- | --- | --- |
| ≤ 5 | ≤ 5 | CC(=O)Nc1cc(C)cc(Nc2nccc(-c3ncc(C)s3)n2)c1 [Example I-154] |
| ≤ 5 | ≤ 5 | Cc1cc(Nc2nccc(-c3ncc(C)s3)n2)cc(NS(C)(=O)=O)c1 [Example I-155] |
| ≤ 5 | ≤ 5 | COCc1cc(N)cc(Nc2nccc(-c3ncc(C)s3)n2)c1 [Example I-156] |
